Source: ChEMBL document CHEMBL5050844 (2019)

How the values were obtained:
[1] = Induction of anti-CD3 antibodies-stimulated human T cell activation at 8 uM assessed fold increase in CD25 expression measured by ELISA assay; assay type: functional, T cell line; also: reference of the scale not given here
[2] = Induction of anti-CD3/CD28 antibodies-stimulated human T cell activation at 0.3 uM assessed fold increase in IL-2 secretion measured by ELISA assay; assay type: functional, T cell line
[3] = Induction of anti-CD3/CD28 antibodies-stimulated human T cell activation at 1 uM assessed fold increase in CD25 expression measured by ELISA assay; assay type: functional, T cell line
[4] = Induction of anti-CD3/CD28 antibodies-stimulated human T cell activation at 0.3 uM assessed fold increase in CD25 expression measured by ELISA assay; assay type: functional, T cell line
[5] = Induction of anti-CD3/CD28 antibodies-stimulated human T cell activation at 4 uM assessed fold increase in IL-2 secretion measured by ELISA assay; assay type: functional, T cell line
[6] = Induction of anti-CD3/CD28 antibodies-stimulated human T cell activation at 4 uM assessed fold increase in CD25 expression measured by ELISA assay; assay type: functional, T cell line
[7] = Induction of anti-CD3 antibodies-stimulated human T cell activation at 8 uM assessed fold increase in IL-2 secretion measured by ELISA assay; assay type: functional, T cell line; also: reference of the scale not given here
[8] = Induction of anti-CD3 antibodies-stimulated human T cell activation at 1 uM assessed fold increase in CD25 expression measured by ELISA assay; assay type: functional, T cell line; also: reference of the scale not given here
[9] = Induction of anti-CD3 antibodies-stimulated human T cell activation at 1 uM assessed fold increase in IL-2 secretion measured by ELISA assay; assay type: functional, T cell line; also: reference of the scale not given here
[10] = Induction of anti-CD3/CD28 antibodies-stimulated human T cell activation at 1 uM assessed fold increase in IL-2 secretion measured by ELISA assay; assay type: functional, T cell line
[11] = target: E3 ubiquitin-protein ligase CBL-B (Homo sapiens, UniProt Q13191); experiment: Inhibition of N-terminal Avi-tagged human CBL-B (36 to 427 residues) incubated with 60 nM Src kinase for 1.5 hrs followed by incubation with fluorescently labeled UbcH5B-Ub for 1 hr and measured by TR-FRET assay; assay type: single protein
Chain of E3 ubiquitin-protein ligase CBL-B (Q13191 whole entry, the tested form may be a part): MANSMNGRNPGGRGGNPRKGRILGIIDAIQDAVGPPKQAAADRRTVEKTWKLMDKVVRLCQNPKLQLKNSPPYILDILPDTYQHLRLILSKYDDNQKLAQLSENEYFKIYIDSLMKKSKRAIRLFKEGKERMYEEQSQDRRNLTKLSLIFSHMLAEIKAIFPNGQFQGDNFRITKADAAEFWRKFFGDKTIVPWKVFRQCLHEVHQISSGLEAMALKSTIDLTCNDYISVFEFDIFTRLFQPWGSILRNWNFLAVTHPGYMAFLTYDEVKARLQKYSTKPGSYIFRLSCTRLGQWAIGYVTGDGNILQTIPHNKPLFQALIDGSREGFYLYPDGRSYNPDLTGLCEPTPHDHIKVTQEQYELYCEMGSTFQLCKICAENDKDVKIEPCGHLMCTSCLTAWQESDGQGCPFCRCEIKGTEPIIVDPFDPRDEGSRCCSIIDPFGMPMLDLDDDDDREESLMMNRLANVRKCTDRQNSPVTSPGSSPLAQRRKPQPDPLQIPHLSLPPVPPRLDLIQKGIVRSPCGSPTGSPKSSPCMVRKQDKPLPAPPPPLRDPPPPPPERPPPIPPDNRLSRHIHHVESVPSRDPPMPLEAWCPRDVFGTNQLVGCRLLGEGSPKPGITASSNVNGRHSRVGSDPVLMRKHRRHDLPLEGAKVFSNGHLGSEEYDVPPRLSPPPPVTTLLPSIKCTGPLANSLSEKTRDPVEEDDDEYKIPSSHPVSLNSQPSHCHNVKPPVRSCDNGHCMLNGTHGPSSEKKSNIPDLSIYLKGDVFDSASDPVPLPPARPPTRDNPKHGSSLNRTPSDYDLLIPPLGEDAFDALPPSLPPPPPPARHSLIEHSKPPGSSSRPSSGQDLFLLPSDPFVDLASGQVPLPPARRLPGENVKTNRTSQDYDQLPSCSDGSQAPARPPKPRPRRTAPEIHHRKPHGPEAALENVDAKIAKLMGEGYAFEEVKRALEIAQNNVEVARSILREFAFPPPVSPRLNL

| Structure (SMILES) | fold change (FC) [1] | fold change (FC) [2] | fold change (FC) [3] | fold change (FC) [4] | fold change (FC) [5] | fold change (FC) [6] | fold change (FC) [7] | fold change (FC) [8] | fold change (FC) [9] | fold change (FC) [10] | fold change (FC) ([1]; 8 µM) | fold change (FC) ([2]; 0.3 µM) | fold change (FC) ([5]; 4 µM) | fold change (FC) ([9]; 1 µM) | fold change (FC) ([10]; 1 µM) | IC50 [11] |
| --- | --- | --- | --- | --- | --- | --- | --- | --- | --- | --- | --- | --- | --- | --- | --- | --- |
| C[C@H](Sc1nncn1C)c1cccc(NC(=O)c2cc3cc(OCc4ccn[nH]4)ccc3cn2)c1 | <=0.6 | 1.01 | <=1 | <=1 | 2.51 | 1.01 | 0.101 | <=0.6 | 0.051 | 1.01 | – | – | – | – | – | – |
| C[C@H](Cc1nncn1C)c1cccc(NC(=O)c2cncc(C(F)(F)F)n2)c1 | >=1.001 | 1.01 | >=1.76 | >=1.76 | 5 | >=1.76 | 0.051 | 0.601 | 0.051 | 2.51 | – | – | – | – | – | – |
| C[C@H](Cc1nnc[nH]1)c1cccc(N2Cc3c(cccc3C(F)(F)F)C2=O)c1 | <=0.6 | <=1 | 1.31 | 1.01 | 1.01 | 1.31 | <=0.05 | <=0.6 | <=0.05 | <=1 | – | – | – | – | – | – |
| C[C@H](Cc1nncn1C)c1cccc(NC(=O)c2cnn3cccnc23)c1 | 0.601 | 1.01 | <=1 | <=1 | 1.01 | 1.01 | 0.051 | 0.601 | 0.051 | 1.01 | – | – | – | – | – | – |
| Cn1cnnc1[C@@H]1C[C@@H]1c1cccc(NC(=O)c2nc3c(C(F)(F)F)cccc3[nH]2)c1 | 0.801 | 1.01 | 1.01 | 1.01 | 2.51 | 1.01 | >=0.201 | 0.601 | 0.101 | 1.01 | – | – | – | – | – | – |
| C[C@H](Sc1nncn1C)c1ccc(F)c(NC(=O)c2cccc(C(F)(F)F)n2)c1 | <=0.6 | 1.01 | 1.01 | <=1 | 2.51 | 1.01 | 0.051 | <=0.6 | <=0.05 | 1.01 | – | – | – | – | – | – |
| Cc1ccc(C(=O)Nc2cccc([C@H](C)Sc3nncn3C)c2)nc1C(F)(F)F | >=1.001 | <=1 | 1.01 | <=1 | 1.01 | 1.01 | <=0.05 | 0.601 | <=0.05 | <=1 | – | – | – | – | – | – |
| C[C@@H](c1cccc(N2Cc3c(cccc3C(F)(F)F)C2=O)c1)[C@H](F)c1nncn1C (relative stereo) | 0.801 | 2.51 | 1.01 | 1.01 | 2.51 | 1.01 | >=0.201 | 0.601 | 0.101 | 2.51 | – | – | – | – | – | – |
| C[C@H](Cc1nncn1C)c1cccc(NC(=O)c2cn3ccnc3cn2)c1 | 0.801 | 1.01 | 1.01 | <=1 | 1.01 | 1.01 | 0.101 | 0.601 | 0.051 | 1.01 | – | – | – | – | – | – |
| Cc1cnnn1C[C@@H](C)c1cccc(NC(=O)c2cccc(C(F)(F)F)n2)c1 | 0.801 | 1.01 | 1.01 | <=1 | 2.51 | 1.01 | 0.151 | 0.601 | 0.051 | 1.01 | – | – | – | – | – | – |
| Cc1ccc(C(=O)Nc2cccc([C@@H](C)Cc3nccn3C)c2)nc1C1CC1 | – | – | – | – | – | – | – | – | – | – | 0.601 | 1.01 | 1.01 | <=0.05 | 1.01 | – |
| C[C@H](Cc1nncn1C)c1cccc(N2Cc3c(ccnc3C(C)(C)F)C2=O)c1 | – | – | – | – | >=7.5 | – | – | – | – | – | – | – | – | – | – | – |
| CC1C(C(F)(F)F)CCN1Cc1cc2c(c(C(F)(F)F)c1)CN(c1cccc(C3(Cc4nncn4C)COC3)c1)C2=O (configuration not stated) | – | 5 | 1.31 | 1.01 | – | – | – | >=1.001 | 0.051 | >=7.5 | – | – | – | – | – | < 100 nM |
| Cn1cnnc1[C@H](F)C1(c2cccc(N3Cc4c(cc(CN5CCCCC5)cc4C(F)(F)F)C3=O)c2)COC1 | – | >=7.5 | 1.01 | 1.01 | – | – | – | >=1.001 | >=0.201 | >=7.5 | – | – | – | – | – | < 100 nM |
| CCN1CCN(Cc2cc3c(c(C(F)(F)F)c2)CN(c2cccc(C4(Cc5nncn5C)COC4)c2)C3=O)CC1 | – | 5 | 1.31 | 1.31 | – | – | – | >=1.001 | >=0.201 | >=7.5 | – | – | – | – | – | < 100 nM |
